According to PMC3684770 (Free Radical Biology & Medicine, 2013):
Read-outs that look alike come from different tables or passages of the source.

Experiments:
C6 astrocyte cell line = experiment: C6 oxidative stress assay (serum withdrawal, DCF); conditions: for Emax: 24 h, read-out: C6 oxidative stress assay Max reduction; for IC50: read-out: C6 oxidative stress assay IC50; for C6 oxidative stress assay Toxic dose: minimum dose at which toxicity was observed; for C6 oxidative stress assay Max reduction: maximum % inhibition of DCF signal
Method: (§1) Media were then replaced with serum-free, phenol-free media for 5 h.

Nrf2-ARE pathway = experiment: ARE reporter assay in CHO 4xARE-TK-GFP cells (Spectrum library hits); conditions: for Fold GFP induction: average fold over baseline at the maximal response, CHO cells, 24 h; for Toxic dose: lowest dose at which a reduction in GFP fluorescence was observed; for Cmax: read-out: Cmax (concentration inducing a maximal response), CHO-4xARE-TK, 24 hours, serum free medium
Method: The Z′ score was calculated as follows Z′=1−(3SD^++3SD^−)/(Ave^+–Ave^−) where SD^+ = standard deviation of positive control wells; SD^− = standard deviation of negative control wells; Ave^+ = average fluorescence reading of positive control wells; Ave^− = average fluorescence reading of negative control wells.
Media was removed by hand and replaced (1 compound/well) with the Spectrum library diluted to 10 μM in 0.1% DMSO using a Q-bot liquid handling system (Genetix, New Milton, UK). […] The TK-GFP CHO ARE cell line was screened twice in a single point assay and the control TK-GFP CHO cell line was screened once to eliminate false positives.
The compounds were applied in triplicate to confluent cells in 96 well plates in serum free medium for 24 hours and the induction of GFP measured in a fluorescence plate reader.
In order to screen the Spectrum collection of 2000 molecules the reporter assay was optimised in […]. To assess the suitability of the assay for library screening, a Z’ score calculation was performed by treating alternate wells with vehicle (0.1% DMSO) and 10 µM Ebselen as a positive control (see calculation in Methods). […] The library was subsequently screened at a single point concentration of 10µM for every compound. Drug library dilutions and plating were performed with a Q-BOT liquid handling system and both the 4xARE-TK-GFP reporter cell line and TK-GFP control cell line were tested for their response to the compounds. Hits were identified as having data points more than three standard deviations above the background level, which was the average value of 24 wells treated with vehicle (0.1% DMSO) only. Hit compounds were checked to see if they generated a response in the control cell line, for example by non-specific activation of transcription or autofluorescence. […] The library screen was repeated once in the 4xARE –TK-CHO cell line and compounds classed as hits in both screens were taken forward for further assessment.

NSC34 cells = experiment: NSC34 oxidative stress assay (serum withdrawal, DCF); conditions: for Emax: Mus musculus, NSC-34, 24 h, read-out: NSC34 oxidative stress assay Max reduction; for NSC34 oxidative stress assay Toxic dose: minimum dose at which toxicity was observed; for NSC34 oxidative stress assay Max reduction: maximum % inhibition of DCF signal, negative = prooxidant
Method: as §1

[1] = test system: 1321N1 astrocyte cell line; experiment: 1321N1 oxidative stress assay (serum withdrawal, DCF); conditions: for Emax: 1321-N1, 24 h, read-out: 1321N1 oxidative stress assay Max reduction; for 1321N1 oxidative stress assay Toxic dose: minimum dose at which toxicity was observed; for 1321N1 oxidative stress assay Max reduction: maximum % inhibition of DCF signal
Method: as §1

[2] = Homo sapiens, 1321-N1, read-out: 1321N1 oxidative stress assay IC50
[3] = read-out: 1321N1 oxidative stress assay IC50, 24-h preconditioning, 6-h serum withdrawal, DCF fluorescence

| Molecule | Emax (C6 astrocyte cell line; Rattus norvegicus, Astrocyte) [%] | IC50 (C6 astrocyte cell line; Rattus norvegicus, Astrocyte) [µM] | C6 oxidative stress assay Toxic dose (C6 astrocyte cell line) | EC50 (Nrf2-ARE pathway; Cricetulus griseus) [µM] | Fold GFP induction (Nrf2-ARE pathway) [fold] | Toxic dose (Nrf2-ARE pathway) [µM] | Emax (NSC34 cells) [%] | NSC34 oxidative stress assay Toxic dose (NSC34 cells) | Emax ([1]; Homo sapiens) [%] | 1321N1 oxidative stress assay Toxic dose [1] | EC90 (Nrf2-ARE pathway; Cricetulus griseus, read-out: approximate EC90) [µM] | IC50 [1, 2] [µM] | C6 oxidative stress assay Max reduction (C6 astrocyte cell line) [%] | IC50 (C6 astrocyte cell line; 24-h preconditioning, 6-h serum withdrawal, DCF fluorescence) [µM] | EC50 (Nrf2-ARE pathway; CHO ARE reporter, 7-point concentration response) [µM] | NSC34 oxidative stress assay Max reduction (NSC34 cells) [%] | 1321N1 oxidative stress assay Max reduction [1] [%] | IC50 [1, 3] [µM] | Cmax (Nrf2-ARE pathway) [µM] |
| --- | --- | --- | --- | --- | --- | --- | --- | --- | --- | --- | --- | --- | --- | --- | --- | --- | --- | --- | --- |
| ClC1=C(Cl)C2(Cl)C3C(Cl)C(Cl)CC3C1(Cl)C2(Cl)Cl (stereo not drawn) [Chlordane] | 20 | 3.57 | none | 9.18 | 1.56 | 100 | 0 | 3 µM | 68 | none |  |  |  |  |  |  |  |  |  |
| O=c1c2ccccc2[se]n1-c1ccccc1 [Ebselen, reference compound] | 30 |  | none | 4 |  | 100 | -80 | none | 20 | none | ~10 | 0.193 |  |  |  |  |  |  |  |
| CC1(C)C(=O)C=C[C@]2(C)[C@H]3CC[C@@]4(C)[C@H](c5ccoc5)OC(=O)[C@H]5O[C@]54[C@]3(C)[C@H](O)C[C@@H]12 [Deacetylgedunin] | 70 | 5.36 | None | 3.5 | 3.05 | 30 | 0 | None | 28 | 10 µM |  | 2.37 |  |  |  |  |  |  |  |
| O=C(/C=C/c1ccc(O)cc1)c1ccc(O)cc1O [Isoliquiritigenin] | 46 | 28 | none | 2.52 |  | 30 | -6 | 1 µM | 50 | none |  | 1.78 |  |  |  |  |  |  |  |
| 3β Hydroxydeoxydesacetoxy-7-oxogedunin |  |  | None |  | 2.55 | 30 |  | 3 µM |  | None |  |  | 67 | 3.07 | 8.71 | 0 | 62 | 3.96 |  |
| CC(=O)O[C@H]1CCC2(C)C3=C(CCC2C1(C)C)[C@@]1(C)CC[C@@H](C(C)CCC=C(C)C)[C@]1(C)CC3 (stereo partly drawn) [Euphol acetate] |  |  | none |  | 2.20 | 100 |  | none |  | none |  |  | 0 |  |  | -43 | 38 | 18 |  |
| COc1cc(O)cc(OC)c1OC [Antiarol] | 23 | 3.05 | 10 µM |  |  | 100 | -50 | 10 µM | 35 | none |  |  |  |  |  |  |  |  |  |
| CCc1cccc(CC)c1N(COC)C(=O)CCl [Alachlor] | 62 | 6.22 |  | 3.29 |  |  | 0 |  | 83 | none |  | 1.97 |  |  |  |  |  |  |  |
| OC[C@H]1O[C@@H](n2cnc3c(NCc4ccco4)ncnc32)[C@H](O)[C@@H]1O [Kinetin riboside] | 40 | 3.84 | 10 µM |  |  | 30 | 0 | 3 µM | 25 | 3 µM |  | 0.246 |  |  |  |  |  |  |  |
| CC(C)(C)c1cc(O)ccc1O [tBHQ, tert-butyl hydroquinone, reference compound] |  |  |  |  |  |  |  |  |  |  |  |  |  |  |  |  |  |  | 10 |
| epigallocatechin-3-gallate [EGCG, reference compound] |  |  |  |  |  |  |  |  |  |  |  |  |  |  |  |  |  |  | 100 |
